The text below walks through data of ChEMBL document CHEMBL1131764, “Solid phase synthesis and biological activities of [Arg8]-vasopressin methylenedithioether” (1999).

The species entered for assay [1] is Rattus norvegicus. As to the kind of experiment: Vasopressor test using phonoxybenzamine treated male rats was determined. The assay is classed as functional.
Assay [2] relates to Rattus norvegicus. Kind of assay: Antidiuretic test on conscious rats was determined. The assay is classed as functional, Urine.
Assay [3] is filed under the species Rattus norvegicus. As to the kind of experiment: In vitro biological activity in the absence of magnesium ions was determined in rats by Uterotonic test. In kind it is functional.

Turning to `NC(=O)CC[C@@H]1NC(=O)[C@H](Cc2ccccc2)NC(=O)[C@H](Cc2ccc(O)cc2)NC(=O)[C@@H](N)CSCSC[C@@H](C(=O)N2CCC[C@H]2C(=O)N[C@@H](CCCN=C(N)N)C(=O)NCC(N)=O)NC(=O)[C@H](CC(N)=O)NC1=O`, the Activity in the assay listed under Rattus norvegicus [1] is on record as 55.3 IU mg-1; in the assay with Rattus norvegicus [2], 46.5 IU mg-1; in the assay listed under Rattus norvegicus [3] it was 1.4 IU mg-1.
Consider `N=C(N)NCCC[C@H](NC(=O)[C@@H]1CCCN1C(=O)[C@@H]1CSSC[C@H](N)C(=O)N[C@@H](Cc2ccc(O)cc2)C(=O)N[C@@H](Cc2ccccc2)C(=O)N[C@@H](CCC(N)=O)C(=O)N[C@@H](CC(N)=O)C(=O)N1)C(=O)NCC(N)=O` [VASOPRESSIN], for which the figures for the Activity in the assay filed under Rattus norvegicus [1], in the assay with Rattus norvegicus [2] and in the assay filed under Rattus norvegicus [3] were 412 IU mg-1, 465 IU mg-1 and 17 IU mg-1, respectively.
